Columns and labels:
moles [1] = test: Field test: IMP vials buried in mole tunnels at a summer residence lawn (Example 1); format: in vivo, Talpa europaea
Protocol: Locality: A summer residence in Ängelholm in the south of Sweden.
Active substance: 100 μl 20% IMP in hexane in a sealed glass vial which was crushed at application in a mole tunnel.

moles [2] = test: Garden test: fenced-in 100 square meter zone treated with IMP versus untreated control area (Example 2); format: in vivo, Talpa europaea
Excerpt: In a garden with an area of 700 square meters with notable mole activity, a zone with an area of 100 square meters was fenced in and treated with IMP under very favourable conditions.

## COc1nccnc1C(C)C [IMP, 2-isopropyl-3-methoxy-pyrazine]
Moles [1]; Example 1, overall conclusion
  Repelling effect on moles (comment on the observations): has a repelling effect on moles
Moles [1]; January 2003, migration back after treatment in June
  Observed effect: mole hills: about 10 mole hills
Moles [1]; June 15, after 2 vials buried June 11 and 3 vials June 14 (100 μl 20% IMP in hexane each), about 20 mole hills at beginning of June
  Observed effect: new mole hills in direction from the vials: 4 new mole hills in direction
Moles [1]; June 19, after 5 vials buried
  Observed effect: new mole hills: 2 new mole hills
Moles [2]; Example 2, overall conclusion
  Behaviour of moles in the treated area: decidedly disturbed
Moles [2]; after 4 days, 10 from the start, untreated control area 10 as compared with 6 from the start
  Mole hills observed in the treated area: 21 mole hills

Source: patent US20070053941A1, “Vermin repellent” (priority 2003, published 2007)
